According to article PMC7756392, “Syntheses of Thailandepsin B Pseudo‐Natural Products: Access to New Highly Potent HDAC Inhibitors via Late‐Stage Modification” (Chemistry (Weinheim an Der Bergstrasse, Germany), 2020):

Tested on: acetylated histone 3
Assay: Western blot, acetyl-histone 3 in HL60 cells
Format: cell-based
Method: LABTECH POLARstar OPTIMA plate reader (BMG Labtechnologies, Germany).
Western Blot: 2.5 x 10^5 HL60 cells were seeded in sterile 12-well plates and incubated with different concentrations of compound or DMSO for 4 h. Cells were washed with cold PBS, lysed with 90 µL SDS sample buffer (Cell Signaling, 62.5 mM Tris-HCl (pH 6.8 at 25°C), 2% w/v SDS, 10% v/v glycerol, 50 mM dithiothreitol, 0.01% bromophenol blue), shortly sonicated and heated to 95°C for 5 min. Cell extracts were used directly for SDS-PAGE or kept frozen at -20 […]
For the SDS-PAGE, 7 µL cell lysate were loaded on a 12.5% gel and the gel was run at 150V for approximately 1 h, followed by the transfer to a nitrocellulose membrane. The membrane was blocked with 5% milk in TBS-T 0.1% for 1 h at room temperature and washed (3 x 5 min) with TBS-T before adding the antibodies. Western blot analysis was performed with the following primary antibodies: anti-acetylated α-tubulin (Sigma-Aldrich, 1:1000), anti-acetyl-histone 3 (Millipore, 1:2000) and anti-GAPDH (Sigma-Aldrich, 1:5000) and secondary antibodies: anti-mouse-IgG-HRP (Sigma-Aldrich, 1:10000) and anti-rabbit IgG-HRP (Sigma- […]
Aldrich, 1:5000). The antibodies were all diluted in 3% milk in TBS-T 0.1%. Detection was performed via enhanced chemiluminescence (ECL Prime) using a FUSION-SL (PEQLAB) and the FUSION-CAPT software.
Figure 4: Western blot of acetyl-α-tubulin, acetyl-H3 and GAPDH after treatment of HL60 cells with different concentrations of 33 or DMSO for 4 h. GAPDH was used as loading control, DMSO as negative control. […]

For `CCCC[C@H]1NC(=O)C[C@@H](/C=C/CCSC(C)=O)OC(=O)C[C@H](O)[C@@H]([C@@H](C)CC)NC(=O)[C@@H](C)NC1=O` [compound 33], which “isotype selectivity for class I HDACs in cells (western blot)” value (HL60 cells, 4 h) is on record?
The value was “selective inhibition of class I HDACs”.

What about the “ac-histone 3” value (HL60 cells, 4 h, 0.0001 µM) of the same molecule?
The value was 1.1%.

And the “ac-histone 3” value (HL60 cells, 4 h, 0.001 µM)?
The value was 0.9%.

What about the “ac-histone 3” value (HL60 cells, 4 h, 0.01 µM) of the same molecule?
The value was 1.8%.

What about the “ac-histone 3” value (HL60 cells, 4 h, 0.1 µM) of the same molecule?
The value was 4.4%.

And the “levels of acetylated histone 3 with increasing inhibitor concentration (in words)” value (western blot)?
Its value is “increasing levels”.
